Measurements: PMC9571290, “Preliminary Structure–Activity Relationship Study of the MMV Pathogen Box Compound MMV675968 (2,4-Diaminoquinazoline) Unveils Novel Inhibitors of Trypanosoma brucei brucei” (Molecules, 2022)

Assays:
in vitro = details: African green monkey
[1] = tested on: trypanosome plasma membrane; test: plasma membrane integrity (SYBR Green); type: cell-based, Trypanosoma brucei brucei; details: IC99, IC90, IC50, IC10; up to 120 min
Method: The plasma membrane is the first barrier protecting the cell from the external environment and therefore might represent an important challenge for compounds to exert their inhibitory action. Thus, compounds 7 and 10 were assessed for their ability to induce alterations in cell integrity as previously described with a modification consisting of using an SYBR green assay. The principle of this assay is based on the fact that upon treatment with membrane disruptors, trypanosomes with compromised plasma become fluorescent as a result of SYBR green entry and fixation to the exposed DNA. Practically, in a 96-well microtiter plate, 90 µL of trypanosome suspension (2 × 10^6 cells/mL/well) was preincubated with SYBR Green (2X) (Sigma Aldrich) for 15 min at 37 °C and 5% CO2 in darkness. […] The plate was then incubated at 37 °C on a Magelan Infinite M200 multiwell plate reader (Tecan), and fluorescence was further recorded every 5 min for up to 120 min at λex = 485 and λem = 538 nm. […] The results are expressed as the mean ± SD of two experiments carried out in duplicate after deducting the background signal (wells containing HMI-9 medium) and then used to plot the fluorescence counts versus time (min) graph.

trypanosomes = test: intracellular ROS production (DCFDA); type: cell-based, Trypanosoma brucei brucei; details: 120 min; versus untreated parasites
Method: The production of ROS was detected using a 2′,7′–dichlorofluorescein diacetate (DCFDA) probe (Sigma–Aldrich) as described by Rea et al.. […] DCFDA (100 µL, 5 µM) was then added to the parasites, and incubation was pursued for 15 min at 37 °C. Hydrogen peroxide (H2O2 0.1% v/v) was used as a positive control for maximal ROS production, and wells with untreated parasites were included as a negative control. Of note, DCFDA is cleaved by ROS to produce fluorescent 2′,7′-dichlorofluorescein (DCF), of which the fluorescence intensity was measured at λex = 485 nm and λem = 520 nm. Data obtained from duplicate readouts were used to determine the ROS production percentage relative to the positive control (100% Production). % ROS production = (OD Test/OD control(H2O2)) × 100

[2] = tested on: bloodstream forms of Trypanosoma brucei brucei; test: cellular DNA fragmentation ELISA (apoptosis or cytolysis); type: cell-based; details: 4 h; for apoptotic DNA fragmentation: lysate, at IC50
Method: Basically, this assay tends to quantify apoptotic cell death by detection of […] dye-labeled DNA fragments in the cytoplasm of affected cells or to measure cell-mediated cytotoxicity by detection of dye-labeled DNA fragments released from damaged cells into the culture supernatant. […] BrdU-labeled parasites were harvested (by spinning at 2500 rpm for 7 min) followed by centrifugal washing using BrdU-free HMI-9 medium. […] The plate was then centrifuged at […] for 7 min, and the pellets were collected and kept at 4 °C until further use. For cytolysis measurement, the supernatants were added to a microplate coated with anti-DNA antibody to allow DNA capture from the test samples. The captured DNA fragments were subsequently denatured using microwave irradiation (LG NeoChef Charcoal Healthy Ovens) at 500 W for 5 min to separate DNA strands in view of displaying the BrdU. Thereafter, an anti-BrdU-antibody-POD (peroxidase) conjugate was added to detect the BrdU contained in the captured DNA fragments.
For apoptosis measurement, the cell pellets from each well were resuspended in 200 µL of the kit’s incubation buffer and incubated for 30 min. The lysed cells were centrifuged at […] for 10 min, and the supernatants were used as described above. Triton X-100 (Sigma Aldrich) was used as a positive control for both apoptosis and cell-mediated cytotoxicity. The absorbance values were proportionally correlated to the amount of DNA fragments in the treated cultures. Data are expressed as the mean ± SD of two independent experiments performed in duplicate and compared to the negative control (untreated parasites) at a significance level of p < 0.05.

[3] = ferric ion reducing antioxidant power (FRAP); details: Fe^3+-reducing activity
Method: Iron is one of the vital elements for all parasites, including trypanosomes, as it plays a key role in pathogenesis and the host immune response. Therefore, iron bioavailability reducing agents to the parasite could be potential candidates for drug development against trypanosomiasis. To this end, we determined the capacity of the test compounds to reduce iron from ferric to ferrous status using the method described by Benzie et al.. Briefly, 25 µL of each compound (7 and 10) was added to 25 µL of a solution of Fe^3+ prepared at 1.2 mg/mL in distilled water in a 96-well microplate. The plate was incubated for 15 min at room temperature in darkness, after which 50 µL of ortho-phenanthroline (0.2% in methanol) was added to achieve final compound concentrations ranging from 400 µM to 0.19 µM. Plates were reincubated for 15 min, and the absorbance was measured at 510 nm. Ascorbic acid was used as a positive control and tested at concentrations ranging from 100 to 0.048 μg/mL. The median reducing concentration (RC50) values of compounds were determined through sigmoidal concentration–response curves using GraphPad Prism version 8.0 software.

Row | Compound | CC50 at 48 h (in vitro) [µM] | effect on plasma membrane permeability [1] | change in ROS production (trypanosomes) | induction of cell lysis (cytolysis) ([2]; culture supernatant) | apoptotic DNA fragmentation [2] | median reducing concentration (RC50) [3] [µM]
1 | COc1ccccc1NCc1ccc2nc(N)nc(N)c2c1 [Analog 7, 6-(((2-methoxyphenyl)amino)methyl)quinazoline-2,4-diamine] | 24.8 ± 0.87 | no impairment or a rather mild effect | no significant change | did not exert any effect | did not exert any effect | 96.37
2 | Nc1nc(N)c2cc(CNc3cc(Cl)ccc3Cl)ccc2n1 [Analog 10, 6-(((2,5-dichlorophenyl)amino)methyl)quinazoline-2,4-diamine] | 78.2 ± 0.8 | no impairment or a rather mild effect | no significant change | – | significant inducing effect | > 400
